In PubChem BioAssay (NCI) one finds TGI and GI50 data, which are given here for 13 compounds.

What all share (test): NCI-60 cell line screen, 48 h
Assay [1] deals with HOP-92 NSCLC.
The test system of assay [2] is KM12 colon.
Assay [3] has as its system SW-620 colon.
For assay [4], the system named is LOX IMVI melanoma.
Assay [5] relates to M14 melanoma.
For assay [6], the system named is CAKI-1 renal.
For assay [7], the system named is UO-31 renal.
The test system of assay [8] is RXF 393 renal.
Assay [9] concerns K-562 leukemia.

Structures are written as SMILES.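 Test compounds were applied to cells in 96-well plates for 48 hours at 5 doses. GI50 = concentration required for 50% inhibition of growth. TGI marks complete inhibition of growth.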

With `CN1CCN2c3ccccc3CC(C#N)(C#N)C2C1` (centres undefined), the TGI in [1], in assay [2], in assay [3], in assay [4], in assay [5] and in assay [6] was over 100 µM throughout. For the same compound, the TGI in assay [7], in assay [8] and in [9] was over 100 µM in each case.
For `CN1C(=O)C(C)(C)NS1(=O)=O`, the TGI in [2], in assay [3], in assay [4], in assay [5], in [6] and in [7] was over 100 µM throughout. The TGI in assay [8] and in [9] was over 100 µM in each case.
Turning to `O=S1(=O)OCc2ccccc21`, the TGI in assay [1], in assay [2], in assay [3], in assay [5], in [7] and in assay [8] was over 100 µM throughout. Also, the TGI in [9] was over 100 µM.
Regarding `CN(C)C(=O)C(NCCO)c1ccccc1` (centres undefined), the TGI in assay [1], in assay [2], in [3], in [4], in assay [5] and in assay [6] was over 100 µM in each case. In addition, the TGI in assay [7] and in assay [8] was over 100 µM throughout.
In the case of `O=C1C[C@@H]2[C@@H](C=CC23CC3)N1O`, the TGI in assay [2], in [3], in assay [4], in assay [5], in assay [6] and in [7] was over 100 µM each time. The TGI in assay [8] and in [9] was over 100 µM throughout.
Regarding `CCOC(=O)C1Nc2ccc([N+](=O)[O-])cc2[C@H]2OCC[C@@H]12` (some centres undefined), the TGI in [2], in assay [3], in assay [4], in assay [5], in assay [6] and in assay [8] was over 100 µM each time. In assay [9], the TGI was over 100 µM.
For the compound `CN(C(=N)c1ccccc1)c1ccccc1`, the TGI in assay [1], in assay [2], in [3], in [4], in assay [5] and in assay [7] was over 100 µM each time. The same compound registered a TGI in assay [9] of over 100 µM.
For `[O-]c1ccccc1[C-]=Nc1ccccc1O.[O-]c1ccccc1[C-]=Nc1ccccc1O.[O]=[U]=[O]`, the GI50 in [1] is 8.4 µM; in assay [2], 6.35 µM; in assay [3] it was 12.2 µM; in [4], 9.82 µM; in assay [5] it was 10.2 µM; in assay [6] it was 12.5 µM. In addition, the GI50 in assay [8] was 20.1 µM; in [9], 2.79 µM. For the same compound, the TGI in [1] is 35.2 µM; in [2] it was over 100 µM; in assay [3], 74.5 µM; in [4], 68 µM; in assay [5], 41.7 µM; in assay [6], 37.3 µM. Further, the TGI in assay [8] is 45.5 µM; in assay [9], over 100 µM.
Consider `Clc1cc2nc[nH]c2cc1Cl`, for which the TGI in assay [1], in [2], in [3], in assay [4], in assay [5] and in assay [6] was over 100 µM in each case. The TGI in [7] and in assay [9] was over 100 µM throughout.
For `C=CC1CC12C(=O)C1OC2(C)C2C(=O)c3c(O)cccc3C(=O)C12` (centres undefined), the GI50 in assay [1] was 25.8 µM; in [2] it was 18 µM; in assay [5] it was 54.9 µM; in assay [6], 13.1 µM; in assay [7], over 100 µM; in assay [8], 13.1 µM. Further, the GI50 in assay [9] was 29.6 µM. The TGI in assay [1] is over 100 µM; in assay [2], 66.3 µM; in assay [5] it was over 100 µM; in [6], 31.8 µM; in assay [7] it was over 100 µM; in [8] it was 41.1 µM. Also, the TGI in assay [9] is 90.7 µM.
For the compound `CC(C)(C)c1cc(O)c2c(c1O)C(=O)CCC2`, the TGI is 21.1 µM in assay [1]; over 100 µM in assay [3]; over 100 µM in [4]; over 100 µM in assay [5]; 82.3 µM in assay [6]; 90.4 µM in assay [8]. This compound also came in with a TGI in assay [9] of over 100 µM.
With `Cc1cc(Cl)ccc1NC(=O)C1C(=O)C(=O)N(c2ccc(Cl)cc2C)C1=O` (centres undefined), the TGI was 54.2 µM in [1]; over 100 µM in [3]; over 100 µM in assay [4]; over 100 µM in assay [5]; over 100 µM in assay [6]; over 100 µM in assay [7]. The compound also registered a TGI in assay [9] of over 100 µM.
As to `Cc1ccc2oc(=O)cc(CC(=O)O)c2c1`, the TGI in [1], in assay [2], in assay [3], in [4], in assay [5] and in [6] was over 100 µM in each case. Further, the TGI in assay [8] and in assay [9] was over 100 µM in each case.
